Test results: PubChem BioAssay AID250 (DTP/NCI, 2004)
Several values for one entry are separate records, joined by “and”; a condition that tells them apart may be missing. Equal values may be shown once. Inconclusive results and toxic doses are left out.

Tested on: BDF1 mice, L1210 leukemia sc, survival T/C
Assay: NCI In Vivo Anticancer Drug Screen. Data for tumor model L1210 Leukemia (subcutaneous) in B6D2F1 (BDF1) mice
Conditions: higher = longer survival
Summary of the method: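 Read-out: T/C ratio, i.e. survival or tumor size in treated mice over that in vehicle-treated controls, from mice bearing transplantable tumors.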

SMILES: O=c1[nH]cc(F)c(=O)[nH]1
- T/C (endpoint: mean survival time, dose: 65.0 mg/kg/injection, schedule: Q07DX009 (sc), vehicle: saline): 112 % of control
- T/C (endpoint: mean survival time, dose: 108.0 mg/kg/injection, schedule: Q07DX009 (sc), vehicle: saline): 99 % of control
- T/C (endpoint: mean survival time, dose: 180.0 mg/kg/injection, schedule: Q07DX009 (sc), vehicle: saline): 113 % of control
- T/C (endpoint: mean survival time, dose: 300.0 mg/kg/injection, schedule: Q07DX009 (sc), vehicle: saline): 162 % of control
- T/C (endpoint: median survival time, dose: 2.5 mg/kg/injection, schedule: Q01DX009 (ip), vehicle: saline): 93 % of control and 100 % of control
- T/C (endpoint: median survival time, dose: 3.0 mg/kg/injection, schedule: Q01DX Z (sc), vehicle: saline): 104 % of control
- T/C (endpoint: median survival time, dose: 3.02 mg/kg/injection, schedule: Q01DX Z (sc), vehicle: saline): 100 % of control
- T/C (endpoint: median survival time, dose: 4.0 mg/kg/injection, schedule: Q01DX Z (sc), vehicle: saline): 105 % of control
- T/C (endpoint: median survival time, dose: 5.0 mg/kg/injection, schedule: Q01DX009 (ip), vehicle: saline): 94 % of control and 100 % of control and 102 % of control
- T/C (endpoint: median survival time, dose: 5.0 mg/kg/injection, schedule: Q01DX009 (sc), vehicle: saline): 103 % of control
- T/C (endpoint: median survival time, dose: 5.0 mg/kg/injection, schedule: Q01DX Z (sc), vehicle: saline): 108 % of control
- T/C (endpoint: median survival time, dose: 5.04 mg/kg/injection, schedule: Q01DX Z (sc), vehicle: saline): 100 % of control
- T/C (endpoint: median survival time, dose: 8.4 mg/kg/injection, schedule: Q01DX009 (ip), vehicle: saline): 110 % of control
- T/C (endpoint: median survival time, dose: 8.4 mg/kg/injection, schedule: Q01DX009 (sc), vehicle: saline): 114 % of control
- T/C (endpoint: median survival time, dose: 8.4 mg/kg/injection, schedule: Q01DX013 (sc), vehicle: saline): 111 % of control
- T/C (endpoint: median survival time, dose: 8.4 mg/kg/injection, schedule: Q01DX Z (sc), vehicle: saline): 105 % of control and 108 % of control and 116 % of control
- T/C (endpoint: median survival time, dose: 10.0 mg/kg/injection, schedule: Q01DX009 (ip), vehicle: saline): 103 % of control and 109 % of control
- T/C (endpoint: median survival time, dose: 14.0 mg/kg/injection, schedule: Q01DX009 (ip), vehicle: saline): 121 % of control
- T/C (endpoint: median survival time, dose: 14.0 mg/kg/injection, schedule: Q01DX013 (sc), vehicle: saline): 150 % of control
- T/C (endpoint: median survival time, dose: 14.0 mg/kg/injection, schedule: Q04DX003 (ip), vehicle: saline): 100 % of control
- T/C (endpoint: median survival time, dose: 14.0 mg/kg/injection, schedule: Q04DX003 (sc), vehicle: saline): 103 % of control
- T/C (endpoint: median survival time, dose: 16.0 mg/kg/injection, schedule: Q01DX Z (sc), vehicle: saline): 122 % of control
- T/C (endpoint: median survival time, dose: 23.0 mg/kg/injection, schedule: Q01DX009 (sc), vehicle: saline): 154 % of control
- T/C (endpoint: median survival time, dose: 23.0 mg/kg/injection, schedule: Q01DX013 (sc), vehicle: saline): 161 % of control and 163 % of control
- T/C (endpoint: median survival time, dose: 23.0 mg/kg/injection, schedule: Q04DX003 (ip), vehicle: saline): 107 % of control
- T/C (endpoint: median survival time, dose: 23.0 mg/kg/injection, schedule: Q04DX003 (sc), vehicle: saline): 102 % of control
- T/C (endpoint: median survival time, dose: 23.3 mg/kg/injection, schedule: Q01DX Z (sc), vehicle: saline): 108 % of control
- T/C (endpoint: median survival time, dose: 38.9 mg/kg/injection, schedule: Q01DX Z (sc), vehicle: saline): 100 % of control
- T/C (endpoint: median survival time, dose: 39.0 mg/kg/injection, schedule: Q01DX009 (ip), vehicle: saline): 109 % of control
- T/C (endpoint: median survival time, dose: 39.0 mg/kg/injection, schedule: Q01DX009 (sc), vehicle: saline): 121 % of control
- T/C (endpoint: median survival time, dose: 39.0 mg/kg/injection, schedule: Q01DX013 (sc), vehicle: saline): 166 % of control and 167 % of control
- T/C (endpoint: median survival time, dose: 39.0 mg/kg/injection, schedule: Q01DX Z (sc), vehicle: saline): 163 % of control and 175 % of control
- T/C (endpoint: median survival time, dose: 64.0 mg/kg/injection, schedule: Q01DX Z (sc), vehicle: saline): 161 % of control
- T/C (endpoint: median survival time, dose: 65.0 mg/kg/injection, schedule: Q01DX009 (ip), vehicle: saline): 101 % of control
- T/C (endpoint: median survival time, dose: 65.0 mg/kg/injection, schedule: Q01DX009 (sc), vehicle: saline): 107 % of control
- T/C (endpoint: median survival time, dose: 65.0 mg/kg/injection, schedule: Q04DX003 (sc), vehicle: saline): 151 % of control
- T/C (endpoint: median survival time, dose: 65.0 mg/kg/injection, schedule: Q07DX009 (sc), vehicle: saline): 114 % of control
- T/C (endpoint: median survival time, dose: 65.0 mg/kg/injection, schedule: Q07DX Z (sc), vehicle: saline): 115 % of control
- T/C (endpoint: median survival time, dose: 108.0 mg/kg/injection, schedule: Q01DX Z (sc), vehicle: saline): 91 % of control
- T/C (endpoint: median survival time, dose: 108.0 mg/kg/injection, schedule: Q04DX003 (ip), vehicle: saline): 173 % of control
- T/C (endpoint: median survival time, dose: 108.0 mg/kg/injection, schedule: Q04DX003 (sc), vehicle: saline): 187 % of control
- T/C (endpoint: median survival time, dose: 108.0 mg/kg/injection, schedule: Q07DX009 (sc), vehicle: saline): 102 % of control
- T/C (endpoint: median survival time, dose: 108.0 mg/kg/injection, schedule: Q07DX Z (sc), vehicle: saline): 105 % of control
- T/C (endpoint: median survival time, dose: 128.0 mg/kg/injection, schedule: Q01DX Z (sc), vehicle: saline): 155 % of control
- T/C (endpoint: median survival time, dose: 180.0 mg/kg/injection, schedule: Q01DX Z (sc), vehicle: saline): 120 % of control
- T/C (endpoint: median survival time, dose: 180.0 mg/kg/injection, schedule: Q04DX003 (ip), vehicle: saline): 121 % of control
- T/C (endpoint: median survival time, dose: 180.0 mg/kg/injection, schedule: Q04DX003 (sc), vehicle: saline): 184 % of control
- T/C (endpoint: median survival time, dose: 180.0 mg/kg/injection, schedule: Q07DX009 (sc), vehicle: saline): 114 % of control
- T/C (endpoint: median survival time, dose: 180.0 mg/kg/injection, schedule: Q07DX Z (sc), vehicle: saline): 115 % of control
- T/C (endpoint: median survival time, dose: 300.0 mg/kg/injection, schedule: Q07DX009 (sc), vehicle: saline): 169 % of control
- T/C (endpoint: median survival time, dose: 300.0 mg/kg/injection, schedule: Q07DX Z (sc), vehicle: saline): 168 % of control

SMILES: CCSc1ncnc2nc[nH]c12
- T/C (endpoint: median survival time, dose: 38.9 mg/kg/injection, schedule: Q01DX Z (sc), vehicle: methylcellulose (MC)): 100 % of control
- T/C (endpoint: median survival time, dose: 64.8 mg/kg/injection, schedule: Q01DX Z (sc), vehicle: methylcellulose (MC)): 100 % of control
- T/C (endpoint: median survival time, dose: 108.0 mg/kg/injection, schedule: Q01DX Z (sc), vehicle: methylcellulose (MC)): 110 % of control
- T/C (endpoint: median survival time, dose: 180.0 mg/kg/injection, schedule: Q01DX Z (sc), vehicle: methylcellulose (MC)): 100 % of control
- T/C (endpoint: median survival time, dose: 300.0 mg/kg/injection, schedule: Q01DX Z (sc), vehicle: methylcellulose (MC)): 110 % of control

SMILES: CCCCCCOP(=O)(N1CC1)N1CC1
- T/C (endpoint: median survival time, dose: 0.65 mg/kg/injection, schedule: Q01DX Z (sc), vehicle: saline): 100 % of control and 110 % of control
- T/C (endpoint: median survival time, dose: 1.08 mg/kg/injection, schedule: Q01DX Z (sc), vehicle: saline): 104 % of control and 110 % of control (2×)
- T/C (endpoint: median survival time, dose: 23.0 mg/kg/injection, schedule: Q01DX001 (sc), vehicle: saline): 150 % of control
- T/C (endpoint: median survival time, dose: 23.0 mg/kg/injection, schedule: Q## X Z (sc), vehicle: saline): 170 % of control
- T/C (endpoint: median survival time, dose: 39.0 mg/kg/injection, schedule: Q01DX001 (sc), vehicle: saline): 150 % of control
- T/C (endpoint: median survival time, dose: 39.0 mg/kg/injection, schedule: Q## X Z (sc), vehicle: saline): 220 % of control
- T/C (endpoint: median survival time, dose: 65.0 mg/kg/injection, schedule: Q01DX001 (sc), vehicle: saline): 170 % of control
- T/C (endpoint: median survival time, dose: 65.0 mg/kg/injection, schedule: Q## X Z (sc), vehicle: saline): 160 % of control
- T/C (endpoint: median survival time, dose: 108.0 mg/kg/injection, schedule: Q01DX001 (sc), vehicle: saline): 160 % of control
- T/C (endpoint: median survival time, dose: 108.0 mg/kg/injection, schedule: Q## X Z (sc), vehicle: saline): 150 % of control
- T/C (endpoint: median survival time, dose: 180.0 mg/kg/injection, schedule: Q01DX001 (sc), vehicle: saline): 150 % of control
